Target: T1, TBK1 (Homo sapiens, UniProt Q9UHD2)
T1 construct: purchased Promega (Invitrogen is also named in the same bracket) V4158; PR8031B; V3991 (not assigned to the two kinases)
T1 sequence (Q9UHD2 1-729): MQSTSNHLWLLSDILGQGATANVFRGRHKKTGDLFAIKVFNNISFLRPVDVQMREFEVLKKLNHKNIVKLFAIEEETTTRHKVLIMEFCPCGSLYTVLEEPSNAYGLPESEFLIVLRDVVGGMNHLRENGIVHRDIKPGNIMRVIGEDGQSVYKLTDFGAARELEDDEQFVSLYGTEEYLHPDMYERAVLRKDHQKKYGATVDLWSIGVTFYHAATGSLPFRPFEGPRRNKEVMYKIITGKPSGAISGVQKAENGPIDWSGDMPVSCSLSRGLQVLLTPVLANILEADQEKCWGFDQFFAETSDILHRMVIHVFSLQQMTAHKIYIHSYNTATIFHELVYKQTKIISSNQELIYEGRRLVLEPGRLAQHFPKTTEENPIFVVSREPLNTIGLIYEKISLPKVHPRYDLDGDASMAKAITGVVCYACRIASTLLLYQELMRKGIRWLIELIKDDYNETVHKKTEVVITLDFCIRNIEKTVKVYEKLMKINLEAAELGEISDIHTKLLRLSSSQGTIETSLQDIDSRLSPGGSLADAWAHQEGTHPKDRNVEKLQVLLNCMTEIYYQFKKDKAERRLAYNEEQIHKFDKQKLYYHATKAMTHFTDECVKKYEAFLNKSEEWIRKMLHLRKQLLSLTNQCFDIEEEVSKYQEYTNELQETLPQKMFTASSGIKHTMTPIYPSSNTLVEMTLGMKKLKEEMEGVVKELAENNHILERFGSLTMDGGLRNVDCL
Experiment: ADP-Glo Kinase Assay, inhibition activity on TBK1
Format: biochemical
How it was run: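 Kinase activity measured with the ADP-Glo luminescent ADP-detection kit per manufacturer's protocol, using IKKε or TBK1 kinase enzyme systems. Reaction buffer: 40 mM Tris (pH 7.5), 20 mM MgCl2, 0.1 mg/mL BSA; luminescence read on a luminometer.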

## CC(C)(C)OC(=O)N1CC=C(c2c[nH]c3ncc(-c4ccc(CN5CCOCC5)cc4)cc23)CC1 [Example 154, tert-Butyl 4-(5-(4-(morpholinomethyl)phenyl)-1H-pyrrolo[2,3-b]pyridin-3-yl)-5,6-dihydropyridine-1(2H)-carboxylate]
  IC50: 320 nM

## CCCCOC(=O)N1CC=C(c2c[nH]c3ncccc23)CC1 [Example 138, Butyl 4-(1H-pyrrolo[2,3-b]pyridin-3-yl)-5,6-dihydropyridine-1(2H)-carboxylate]
  IC50: 5200 nM

## O=C(c1cccs1)N1CC=C(c2c[nH]c3ncc(-c4csc(CN5CCOCC5)c4)cc23)CC1 [Example 207, (4-(5-(5-(morpholinomethyl)thiophen-3-yl)-1H-pyrrolo[2,3-b]pyridin-3-yl)-5,6-dihydropyridin-1(2H)-yl)(thiophen-2-yl)methanone]
  IC50: 48 nM

## CC1CN(C(=O)c2cccs2)CC=C1c1c[nH]c2ncc(-c3ccc(CN4CCOCC4)s3)cc12 (stereo not drawn) [Example 216, (5-methyl-4-(5-(5-(morpholinomethyl)thiophen-2-yl)-1H-pyrrolo[2,3-b]pyridin-3-yl)-5,6-dihydropyridin-1(2H)-yl)(thiophen-2-yl)methanone]
  IC50: 73 nM

## COc1ccc(-c2cnc3[nH]cc(C4CCCN(C(=O)OC(C)(C)C)C4)c3c2)cc1OC (stereo not drawn) [Example 236, tert-butyl 3-(5-(3,4-dimethoxyphenyl)-1H-pyrrolo[2,3-b]pyridin-3-yl)piperidine-1-carboxylate]
  IC50: > 10000 nM

## CCCOc1ccc(-c2cnc3[nH]cc(C4=CCN(C(=O)OC(C)(C)C)CC4)c3c2)cc1 [Example 243, tert-butyl 4-(5-(4-propoxyphenyl)-1H-pyrrolo[2,3-b]pyridin-3-yl)-5,6-dihydropyridine-1(2H)-carboxylate]
  IC50: 1700 nM

## CS(=O)(=O)c1ccc(-c2cnc3[nH]cc(C4=CCN(C(=O)c5cccs5)CC4)c3c2)cc1 [Example 194, (4-(5-(4-(methylsulfonyl)phenyl)-1H-pyrrolo[2,3-b]pyridin-3-yl)-5,6-dihydropyridin-1(2H)-yl)(thiophen-2-yl)methanone]
  IC50: > 10000 nM

## CN(C(=O)N1CC=C(c2c[nH]c3ncc(-c4cccc(S(C)(=O)=O)c4)cc23)CC1)C1CCCC1 [Example 217, N-cyclopentyl-N-methyl-4-(5-(3-(methylsulfonyl)phenyl)-1H-pyrrolo[2,3-b]pyridin-3-yl)-5,6-dihydropyridine-1(2H)-carboxamide]
  IC50: 360 nM

## O=C(O)Cc1ccc(-c2c[nH]c3ncc(-c4ccc(CN5CCOCC5)s4)cc23)cc1 [Example 247, 2-(4-(5-(5-(morpholinomethyl)thiophen-2-yl)-1H-pyrrolo[2,3-b]pyridin-3-yl)phenyl)acetic acid]
  IC50: 1300 nM

## O=C(OC1CCCC1)N1CC=C(c2c[nH]c3ncc(-c4ccc(CN5CCOCC5)s4)cc23)CC1 [Example 186, Cyclopentyl 4-(5-(5-(morpholinomethyl)thiophen-2-yl)-1H-pyrrolo[2,3-b]pyridin-3-yl)-5,6-dihydropyridine-1(2H)-carboxylate]
  IC50: 160 nM

## NS(=O)(=O)c1ccc(-c2cnc3[nH]cc(C4=CCN(C(=O)OC5CCCC5)CC4)c3c2)cc1 [Example 176, Cyclopentyl 4-(5-(4-sulfamoylphenyl)-1H-pyrrolo[2,3-b]pyridin-3-yl)-5,6-dihydropyridine-1(2H)-carboxylate]
  IC50: 52 nM

## CNS(=O)(=O)c1cccc(-c2cnc3[nH]cc(C4=CCN(C(=O)c5cccs5)CC4)c3c2)c1 [Example 199, N-methyl-3-(3-(1-(thiophene-2-carbonyl)-1,2,3,6-tetrahydropyridin-4-yl)-1H-pyrrolo[2,3-b]pyridin-5-yl)benzensulfonamide]
  IC50: 34 nM

## CNS(=O)(=O)c1ccc(-c2cnc3[nH]cc(C4=CCN(C(=O)NC5CCCC5)CC4)c3c2)cc1 [Example 60, N-cyclopentyl-4-(5-(4-(N-methylsulfamoyl)phenyl)-1H-pyrrolo[2,3-b]pyridin-3-yl)-5,6-dihydropyridine-1(2H)-carboxamide]
  IC50: 38 nM

## COc1ccc(-c2cnc3[nH]cc(C4=C(F)CN(C(=O)NC5CCCC5)CC4)c3c2)cc1OC [Example 133, N-cyclopentyl-4-(5-(3,4-dimethoxyphenyl)-1H-pyrrolo[2,3-b]pyridin-3-yl)-3-fluoro-5,6-dihydropyridine-1(2H)-carboxamide]
  IC50: 220 nM

## CC(C)NC(=O)N1CC=C(c2c[nH]c3ncc(-c4ccc(CN5CCOCC5)s4)cc23)CC1 [Example 34, N-isopropyl-4-(5-(5-(morpholinomethyl)thiophen-2-yl)-1H-pyrrolo[2,3-b]pyridin-3-yl)-5,6-dihydropyridine-1(2H)-carboxamide]
  IC50: 0.73 nM

## O=C(NCc1ccco1)c1cccc(-c2cnc3[nH]cc(C4=CCN(C(=O)NC5CCCC5)CC4)c3c2)c1 [Example 67, N-cyclopentyl-4-(5-(3-((furan-2-ylmethyl)carbamoyl)phenyl)-1H-pyrrolo[2,3-b]pyridin-3-yl)-5,6-dihydropyridine-1(2H)-carboxamide]
  IC50: 410 nM

## O=C(OC1CCCC1)N1CC=C(c2c[nH]c3ncccc23)CC1 [Example 140, Cyclopentyl 4-(1H-pyrrolo[2,3-b]pyridin-3-yl)-3,6-dihydropyridine-1(2H)-carboxylate]
  IC50: 310 nM

## CC(C)(C)OC(=O)N1CC=C(c2c[nH]c3ncc(-c4ccc(N5CCOCC5)cc4)cc23)CC1 [Example 158, tert-Butyl 4-(5-(4-morpholinophenyl)-1H-pyrrolo[2,3-b]pyridin-3-yl)-5,6-dihydropyridine-1(2H)-carboxylate]
  IC50: 410 nM

## CC(C)(C)OC(=O)N1CC=C(c2c[nH]c3ncc(-c4ccc(CN5CCOCC5)s4)nc23)CC1 [Example 234, tert-butyl 4-(2-(5-(morpholinomethyl)thiophen-2-yl)-5H-pyrrolo[2,3-b]pyrazin-7-yl)-5,6-dihydropyridine-1(2H)-carboxylate]
  IC50: 470 nM

## COc1ccc(-c2cnc3[nH]cc(C4=CCN(C(=O)NC5CCOC5)CC4)c3c2)cc1OC (stereo not drawn) [Example 81, 4-(5-(3,4-Dimethoxyphenyl)-1H-pyrrolo[2,3-b]pyridin-3-yl)-N-(tetrahydrofuran-3-yl)-5,6-dihydropyridine-1(2H)-carboxamide]
  IC50: 21 nM

## COc1ccc(-c2cnc3[nH]cc(C4=CCN(C(=O)OC(C)(C)C)CCC4)c3c2)cc1OC [Example 188, tert-Butyl 5-(5-(3,4-dimethoxyphenyl)-1H-pyrrolo[2,3-b]pyridin-3-yl)-2,3,4,7-tetrahydro-1H-azepine-1-carboxylate]
  IC50: 4900 nM

## CC(C)(C)OC(=O)N1CC=C(c2c[nH]c3nc(N)c(-c4ccc(CN5CCOCC5)s4)cc23)CC1 [Example 225, tert-butyl 4-(6-amino-5-(5-(morpholinomethyl)thiophen-2-yl)-1H-pyrrolo[2,3-b]pyridin-3-yl)-5,6-dihydropyridine-1(2H)-carboxylate]
  IC50: > 10000 nM

## COc1ccc(-c2cnc3[nH]cc(C4=CCN(C(=O)c5cccs5)CC4)c3c2)cc1S(=O)(=O)N1CCOCC1 [Example 203, (4-(5-(4-methoxy-3-(morpholinosulfonyl)phenyl)-1H-pyrrolo[2,3-b]pyridin-3-yl)-5,6-di hydropyridin-1(2H)-yl)(thiophen-2-yl)methanone]
  IC50: 39 nM

## O=C(c1cccs1)N1CC=C(c2c[nH]c3ncc(-c4ccc(CN5CCOCC5)s4)nc23)CC1 [Example 233, (4-(2-(5-(morpholinomethyl)thiophen-2-yl)-5H-pyrrolo[2,3-b]pyrazin-7-yl)-5,6-dihydropyridin-1(2H)-yl)(thiophen-2-yl)methanone]
  IC50: 40 nM

From patent US10239873B2, “7-azaindole or 4,7-diazaindole derivatives as IKKϵ epsilon and TBK1 inhibitor and pharmaceutical composition comprising same” (GREEN CROSS CORPORATION, priority 2015, dated 2019)
